Here are results for 5 compounds from US5030638A, “Method of antiviral enhancement” (priority 1990, dated 1991).

pIC50: −log10 of the molar value. In brackets after ≈: the same amount, converted by molar mass. Read-outs that look alike come from different tables or passages of the source.

One data set relates to HIV. As to conditions: cited from earlier work; for HIV inhibitory / antiviral activity: literature.
Data set [1] in a line: Preliminary pharmacokinetic tests in rats, total radioactivity in the blood. Particulars: rat.
A short description of data set [2]: Solubility in aqueous solvent (antiviral test). Type of data set: physicochemical.
Data set [3] has as its system Sheep choroid plexus (SCP) cells. Kind of data set: Toxicity in control wells (without virus) of the plaque reduction assay. Particulars: graded 0 to 4. It is filed as cell-based. Also noted: key: 0: no toxicity; 4: total cell lysates. The protocol: (§1) Sheep choroid plexus(SCP) cells were obtained from American Type Culture Collection (ATCC) catalogue number CRL 1700 and were routinely passaged in vitro in Dulbecco's Modified Eagles (DME) medium supplemented with 20% fetal bovine serum (FBS). SCP cells were passaged once per week at a 1:2 or 1:3 split ratio. Visna was titrated by plaque assay in six-well plates. Virus pools were stored at -70° C.
(§2) SCP cells were cultured in 6-well plates to confluence. Wells were washed two times with serum free Minimal Essential Medium (MEM) to remove FBS. 0.2 ml of virus was added per well in MEM supplemented with 4 mM glutamine and gentamycin. After 1 hour adsorption, the virus was aspirated from each well. The appropriate concentration of each compound in 5 ml of Medium 199 (M-199) supplemented with 2% lamb serum, 4 mM glutamine, 0.5% agarose and gentamycin was added to each well. […] To terminate the test: cultures were fixed in 10% formalin, the agar removed, the monolayers stained with 1% crystal violet and plaques counted. Each compound concentration was run in triplicate. […] 0 is no toxicity observed while 4 is total lysing of the cell monolayer.
Toxicity graded on 0 to 4 scale 0 = no toxicity, 4 = total cell lysates

The test system of a further data set is HIV-1, strain HTLV-IIIB. Kind of data set: Reduction of cytopathogenic effect (CPE) in HIV-1 infected CEM cells, MTT assay. Type of data set: cell-based. As to conditions: for inhibition at 10 µg/mL / inhibition at 32 µg/mL / inhibition at 500 µg/mL / inhibition at 100 µL/mL / IC50 / inhibition at 1 µg/mL / inhibition at 3.2 µg/mL: Human immunodeficiency virus 1, IIIB, CCRF-CEM, 216 h; for inhibition at 10 µg/mL: 10 μg/ml; for inhibition at 10 µg/mL / inhibition at 32 µg/mL / inhibition at 500 µg/mL / inhibition at 100 µL/mL / inhibition at 1 µg/mL / inhibition at 3.2 µg/mL: read-out: Percent Reduction of CPE; for inhibition at 32 µg/mL: 32 μg/ml; for inhibition at 500 µg/mL: 500 μg/ml; for inhibition at 100 µL/mL: 100 μl/ml (so in the source); for IC50: read-out: ID50 (median inhibitory dose); for inhibition at 1 µg/mL: 1.0 μg/ml; for inhibition at 3.2 µg/mL: 3.2 μg/ml; for inhibition of HIV-1: in vitro. The protocol:
These tests involved plating of susceptible human host cells which are syncytium-sensitive with and without virus in microculture plates, adding various concentrations of the test compound, incubating the plates for 9 days (during which time infected, non-drug treated control cells are largely or totally destroyed by the virus), and then determining the number of remaining viable cells using a colorimetric endpoint.
Tissue culture plates were incubated at 37° C. in a humidified, 5% CO2 atmosphere and observed microscopically for toxicity and/or cytopathogenic effect (CPE). At 2 and 6 days after infection, fresh dilutions of each test article were prepared from the frozen stock, and a 20 μl volume of each dilution (prepared as a 10× concentration was added to the appropriate wells of both infected and uninfected cells.
On the 9th day post-infection, the cells in each well were resuspended and a 100 μl sample of each cell suspension was removed for use in an MTT assay. A 20 μl volume of a 5 mg/ml solution of 3-(4,5-dimethylthiazol-2-yl)-2,5-diphenyltetrazolium bromide (MTT) was added to each 100 μl cell suspension, and the cells were incubated at 37° C. in 5% CO2 for 4 hours. […] A 100 μl volume of a solution of 10% sodium dodecyl sulfate in 0.01N hydrochloric acid wa added to each sample, and the samples were incubated overnight. The absorbance at 590 nm was determined for each sample using a Molecular Devices Vmax microplate reader. This assay detects drug-induced suppression of viral CPE, as well as drug cytotoxicity, by measuring the generation of MTT-formazan by surviving cells.
Assays were done in 96-well tissue culture plates. CEM cells were treated with polybrene at a concentration of 2 μg/ml, and an 80 μl volume of cells (1×10^4 cells) was dispensed into each well. A 100 μl volume of each test article dilution (prepared as a 2× concentration) was added to 5 wells of cells, and the cells were incubated at 37° C. for 1 hour. A frozen culture of HIV-1, strain HTLV-IIIB, was diluted in culture medium to a concentration of 5×10^4 TCID50 per ml, and a 20 μl volume (containing 10^3 TCID50 of virus) was added to 3 of the wells for each test article concentration. […] A 20 μl volume of normal culture medium was added to the remaining wells to allow evaluation of cytotoxicity. Each plate contained 6 wells of untreated, uninfected, cell control samples and 6 wells of untreated, infected, virus control samples. Dideoxycytidine (DDC) and dideoxyadenosine (DDA) were included as positive control compounds.

The conditions of data set [4]: in vivo; cited from earlier work.
The target of another data set is T1, yeast α-glucosidase (Saccharomyces cerevisiae, UniProt P53341).
T1 construct: purchased Sigma
T1 sequence (P53341 whole entry): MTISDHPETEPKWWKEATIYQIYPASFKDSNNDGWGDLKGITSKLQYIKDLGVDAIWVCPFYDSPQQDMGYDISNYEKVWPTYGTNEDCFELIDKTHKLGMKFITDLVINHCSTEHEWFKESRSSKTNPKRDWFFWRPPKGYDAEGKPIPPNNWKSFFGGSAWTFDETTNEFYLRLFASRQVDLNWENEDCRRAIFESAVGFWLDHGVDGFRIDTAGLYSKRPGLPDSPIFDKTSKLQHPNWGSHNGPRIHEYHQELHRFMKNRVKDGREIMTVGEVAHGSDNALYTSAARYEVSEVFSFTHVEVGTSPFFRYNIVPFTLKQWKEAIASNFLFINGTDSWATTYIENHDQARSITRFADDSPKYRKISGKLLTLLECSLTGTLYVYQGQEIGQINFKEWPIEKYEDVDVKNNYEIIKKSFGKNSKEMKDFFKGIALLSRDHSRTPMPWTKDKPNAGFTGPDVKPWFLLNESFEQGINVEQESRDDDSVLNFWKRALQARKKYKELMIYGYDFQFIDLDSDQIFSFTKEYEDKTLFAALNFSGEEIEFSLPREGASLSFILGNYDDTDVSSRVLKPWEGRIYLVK
Kind of data set: Alpha-glucosidase inhibition assay, pH 7.4. It is filed as biochemical. The protocol: (§3) Yeast alpha-glucosidase and almond beta-glucosidase activities were measured by a modification of the method of Evans, et al., Phytochemistry 22, 768-770 (1983). The modifications included 1) assay of activities at pH 7.4 in HEPES (N-2-hydroxyethylpiperazine-N'-2-ethanesulfonic acid) buffer, 2) measurement in 96 well microtiter plates and 3) inclusion of 10% DMSO in control and test samples.
(§4) The release of p-nitrophenol from the substrate p-nitrophenylglycoside was measured spectrophotometrically in the presence and absence of test compound. Each assay included a known inhibitor of the enzyme as a standard.
To 100 μl 50 mM HEPES buffer, pH 7.4, in a microtiter plate, add 20 μl test compound in DMSO (DMSO alone in control), 40 μl (0.013 units) yeast alpha-glucosidase (Sigma) in HEPES buffer and pre-incubate at room temperature for 15 minutes. Add 40 μl 1.25 mM p-nitrophenyl-alpha-D-glucopyranoside (Sigma) in HEPES buffer, as substrate, and monitor absorbance change at 405 nm in Biotek EIA Auto-reader. Absorption change was measured at 15 to 25 minutes (reaction was linear for at least 30 minutes). Each sample was tested in triplicate. […] Deoxynojirimycin was used as standard inhibitor.

Data set [5] can be described thus: Assay for excretion of metabolites in urine of rats. Type of data set: in vivo, rat.
In a further data set the test system is visna virus. Put plainly: Plaque reduction assay, inhibition of visna virus in vitro. As to conditions: Visna-maedi virus, read-out: Antiviral Activity (plaque reduction). Type of data set: cell-based. The method, then: as §1, §2
A general note: In a plaque reduction assay, fewer plaques than in the control indicate reduced infectivity or spread.

Another data set addresses glucosidase I. As to conditions: Schweden et al.; compared to N-methyl- and N-butyl-derivatives; cited from earlier work.
For data set [6], the target named is almond β-glucosidase. Kind of data set: Beta-glucosidase inhibition assay, pH 7.4. Type of data set: biochemical. Particulars: for pIC50: pH 7.4, read-out: Enzyme Inhibition-IC50, Almond β-Glucosidase pH 7.4; for Inhibition Index (first, head is drawing 3) / Inhibition Index (second, head is drawing 4): ratio of IC50 values; for Inhibition Index (first, head is drawing 3): numerically almond pH 4.8 / almond pH 7.4; for Inhibition Index (second, head is drawing 4): numerically yeast α pH 7.4 / almond β pH 7.4. The method, then: as §3, §4
To 100 μl 50 mM HEPES buffer, pH 7.4, in a microtiter plate, add 20 μl test compound in DMSO (DMSO alone in control), 40 μl (0.136 units) beta-glucosidase (Sigma) in HEPES buffer and pre-incubate at room temperature for 15 minutes. Add 40 μl 1.25 mM p-nitrophenyl-beta-D-glucopyranoside in HEPES buffer, as substrate and monitor absorbance change at 405 nm in a Biotek EIA Autoreader. Absorption change was measured at 15 to 25 minutes (reaction is linear for at least 30 minutes). Each sample was tested in triplicate. […] Castanospermine was used as standard inhibitor.

Data set [7] deals with almond β-glucosidase. Kind of data set: Beta-glucosidase inhibition assay, pH 4.8. As to conditions: read-out: Enzyme Inhibition-IC50, Almond β-Glucosidase pH 4.8. It is filed as biochemical. The protocol:
as §3, §4
To 100 μl 50 mM sodium citrate buffer, pH 4.8, in a microtiter plate, add 15 μl test compound in DMSO (DMSO alone in control), 20 μl (0.017 units) beta-glucosidase (Sigma) in citrate buffer and pre-incubate at room temperature for 15 minutes. Add 25 μl 2.50 mM p-nitrophenyl-beta-D-glucopyranside in citrate buffer, as substrate. […] Add 50 μl 0.4M NaOH. Read absorption change at 405 nm in a Biotek EIA Autoreader. Each sample was tested in triplicate. […] Castanospermine was used as standard inhibitor.

Another data set deals with glucosidase. Particulars: Fleet et al.; cited from earlier work.
The conditions of data set [8]: rat.
[9] abbreviates: HIV-1, CEM cells, reduction of CPE.

With `CCCCN1C[C@H](O)[C@@H](O)[C@H](O)[C@H]1CO` [N-Butyl-DNJ, Nbutyl-deoxynojirimycin, reference compound], the “reduction of infectious viral particles” value in the data set on HIV (Karpas et al., at nontoxic concentrations) is given as “greater than five”. Besides, in the data set with HIV, the “HIV inhibitory / antiviral activity” value is recorded as “significant antiviral activity”. Further, in data set [1], the t1/2 in vivo turned out to be 1.24 h. Besides, the Solubility result in data set [2] is “Solubility problem; compound did not completely dissolve”. Further, the Toxicity in [3] (10 μM) stood at 0. The same compound registered a Toxicity in [3] (1 mM) of 0. In the data set on HIV-1, strain HTLV-IIIB, the inhibition at 10 µg/mL was 42.6%, the inhibition at 32 µg/mL was determined as 49.8%, the inhibition at 500 µg/mL amounted to 50.7% and the inhibition at 100 µL/mL was 53.3%. Also, in the data set with HIV-1, strain HTLV-IIIB (setting [9]), the IC50 stood at 34 µg/mL (≈ 155 µM). The gastrointestinal side effects result in [4] is recorded as “gastrointestinal side effects seen”. Also, the pIC50 (in general, the IC50 on a negative log10 scale, so that one unit is a factor of ten) at yeast α-glucosidase is 3.27. For the same compound, in data set [5], the metabolism result is “not metabolized”. For the same compound, the inhibition at 10 µM in the data set on visna virus (10 μM) turned out to be 57%. For the same compound, the inhibition at 1000 µM in the data set with visna virus (1 mM) was 100%.
Consider `CCCCCCN1C[C@H](O)[C@@H](O)[C@H](O)[C@H]1CO` [Example 2, 1,5-(Hexylimino)-1,5-dideoxy-D-glucitol], for which the “Ki, glucosidase I” value on glucosidase I was “greater Ki values than the N-methyl- and N-butyl-derivatives”. At almond β-glucosidase [6], the pIC50 was 5.32; the “Inhibition Index (first, head is drawing 3)” value is recorded as 30; the “Inhibition Index (second, head is drawing 4)” value is 77.3. Also, the Solubility entry in [2] is recorded as “Solubility problem; compound did not completely dissolve”. Moreover, the Toxicity in [3] (1 μM) was 2. Moreover, the Toxicity in data set [3] (10 μM) is listed as 0. Further, at almond β-glucosidase [7], the pIC50 is 3.84. The “ID50 compared to N-butyl-DNJ” value with HIV-1, strain HTLV-IIIB (HIV-1, CEM cells) was “advantageous reduction in ID50”. For the same compound, in the data set on HIV-1, strain HTLV-IIIB, the inhibition at 1 µg/mL was 0%, the inhibition at 3.2 µg/mL turned out to be 15.6%, the inhibition at 10 µg/mL was found to be 65.6% and the inhibition at 32 µg/mL was determined as 68%. In the data set on HIV-1, strain HTLV-IIIB, the inhibition at 500 µg/mL was 147%, the inhibition at 100 µL/mL was 65.1% and the “inhibition of HIV-1” value is “demonstrated to inhibit HIV-1”. Besides, in the data set with HIV-1, strain HTLV-IIIB (setting [9]), the IC50 came to 7.3 µg/mL (≈ 29.5 µM). The pIC50 on yeast α-glucosidase (pH 7.4, read-out: Enzyme Inhibition-IC50, Yeast α-Glucosidase pH 7.4) was 3.43. Besides, the inhibition at 1 µM in the data set with visna virus (1 μM) worked out at 100%. Moreover, in the data set on visna virus (10 μM), the inhibition at 10 µM amounted to 94%.
Turning to `OC[C@H]1NC[C@@H](O)[C@@H]1O` (single isomer, unassigned) [D-enantiomer, 1,4-dideoxy-1,4-imino-arabinitol], the “HIV inhibitory / antiviral activity” value with HIV was “very little effect on HIV replication”. Moreover, the glucosidase inhibition entry in the data set with glucosidase is on record as “known glucosidase inhibitors”.
Turning to `CCCCCCCCCN1C[C@H](O)[C@@H](O)[C@H](O)[C@H]1CO` [Example 3, 1,5(Nonylimino)-1,5-dideoxy-D-glucitol], at almond β-glucosidase [6], the pIC50 was 4.74; the “Inhibition Index (first, head is drawing 3)” value turned out to be 10.8; the “Inhibition Index (second, head is drawing 4)” value is given as 14.8. In data set [3] (10 μM), this compound gave a Toxicity of 0. This compound had a Toxicity in [3] (1 mM) of 4. Further, the t1/2 in vivo in [8] is 6.24 h. The pIC50 on almond β-glucosidase [7] was 3.71. Besides, the “ID50 compared to N-butyl-DNJ” value in the data set on HIV-1, strain HTLV-IIIB (HIV-1, CEM cells) is “advantageous reduction in ID50”. For the same compound, in the data set with HIV-1, strain HTLV-IIIB, the IC50 amounted to 6.9 µg/mL (≈ 23.8 µM), the inhibition at 1 µg/mL was 0%, the inhibition at 3.2 µg/mL was found to be 25.7% and the inhibition at 10 µg/mL came to 62.5%. In addition, in the data set on HIV-1, strain HTLV-IIIB, the inhibition at 32 µg/mL amounted to 28.9% and the “inhibition of HIV-1” value is “demonstrated to inhibit HIV-1”. At yeast α-glucosidase, this compound had a pIC50 of 3.57. Further, in data set [5], the metabolism result is given as “metabolized”. Further, in the data set on visna virus, the inhibition at 10 µM was 69% and the inhibition at 1000 µM was 100%.
As to `OC[C@H]1NC[C@@H](O)[C@@H]1O` (single isomer, unassigned) [L-enantiomer, 1,4-dideoxy-1,4-imino-arabinitol], in the data set with HIV, the “HIV inhibitory / antiviral activity” value is listed as “strong HIV inhibitory activity”. Moreover, in the data set on glucosidase, the glucosidase inhibition entry is given as “known glucosidase inhibitors”.
